Assay results taken from US20250313533A1, “QUINOLINE CARBOXYLIC ACID ESTER COMPOUND AND PREPARATION METHOD AND USE THEREOF” (priority 2019, published 2025).

Experiments:
[1] = tested on: pathogenic bacteria causing bacterial angular leaf spot in cucumbers; test: In vitro bactericidal activity, bacterial angular leaf spot in cucumbers; assay type: cell-based, pseudomonas; settings: read-out: inhibitory rate; for inhibition at 1 ppm: dosage 1 ppm; for inhibition at 5 ppm: dosage 5 ppm
[2] = tested on: pathogenic bacteria causing bacterial wilt in tobacco; test: whole plant or invertebrate; assay type: cell-based, ralstonia; settings: read-out: inhibitory rate
[3] = tested on: pathogenic bacteria causing black shank in potatoes; test: In vitro bactericidal activity, black shank in potatoes; assay type: cell-based; settings: read-out: inhibitory rate; for inhibition at 1 ppm: dosage 1 ppm; for inhibition at 5 ppm: dosage 5 ppm
[4] = tested on: pathogenic bacteria causing stem rot in sweet potatoes; test: In vitro bactericidal activity, stem rot in sweet potatoes; assay type: cell-based, dikia; settings: read-out: inhibitory rate; for inhibition at 1 ppm: dosage 1 ppm; for inhibition at 5 ppm: dosage 5 ppm
[5] = tested on: pathogenic bacteria causing bacterial blight in rice; test: whole plant or invertebrate; assay type: cell-based, xanthomonas; settings: read-out: inhibitory rate
[6] = tested on: pathogenic bacteria causing fruit blotch in watermelons; test: In vitro bactericidal activity, fruit blotch in watermelons; assay type: cell-based, acidovorax; settings: read-out: inhibitory rate; for inhibition at 1 ppm: dosage 1 ppm; for inhibition at 5 ppm: dosage 5 ppm
[7] = tested on: pathogenic bacteria causing black rot in Chinese cabbages; test: In vitro bactericidal activity, black rot in Chinese cabbages; assay type: cell-based, xanthomonas; settings: Xanthomonas, read-out: inhibitory rate; for inhibition at 1 ppm: dosage 1 ppm; for inhibition at 5 ppm: dosage 5 ppm
[8] = tested on: pathogenic bacteria causing bacterial wilt in cassava; test: organism not typed; assay type: cell-based; settings: read-out: inhibitory rate
[9] = tested on: pathogenic bacteria causing fire blight in pears; test: In vitro bactericidal activity, fire blight in pears; assay type: cell-based, erwinia; settings: Erwinia, read-out: inhibitory rate; for inhibition at 1 ppm: dosage 1 ppm; for inhibition at 5 ppm: dosage 5 ppm
black shank in potatoes = test: Living crops in vivo protective activity, potatoes (root irrigation); settings: Solanum tuberosum, read-out: efficacy against black shank in potatoes; for pest or weed control at 5 ppm: dosage 5 ppm; for pest or weed control at 10 ppm: dosage 10 ppm
Experimental: Root irrigation was carried out on the potatoes for tests according to the designed concentration of the agents. The dosage for each plant was 200 mL and was kept consistent (also for the control). The black shank bacteria were inoculated on the second day after the application. The results were investigated according to the disease condition.

[10] = tested on: indoor potted cucumber seedlings; test: Effect of improving growth and development of crops; assay type: in vivo; design: Rate of growth rate increase (%): concentration or dose not given beside the values; settings: versus blank control; for Rate of chlorophyll content increase (%) / Rate of leaf area increase (%): 14 days after application; for Rate of growth rate increase (%): plant height 14 days after application; for Rate of leaf area increase (%): second leaf
How it was run: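 Before treatment, plant height and the second leaf's length and width are recorded. After 14 days these are repeated, chlorophyll is read by meter, and percentage increases in growth rate, leaf area and chlorophyll are computed.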

cucumber seedlings = test: Safety for plant growth after application; assay type: in vivo; settings: dosage 200 ppm
How it was run: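 Read-outs are chlorophyll content, leaf area and the rate of increase in plant height, all measured on cucumber seedlings kept in pots indoors after application.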

[11] = tested on: bacterial wilt in tobacco; test: whole plant or invertebrate; settings: Nicotiana tabacum, read-out: efficacy against bacterial wilt in tobacco
[12] = tested on: stem rot in sweet potatoes; test: whole plant or invertebrate; settings: read-out: efficacy against stem rot in sweet potatoes
bacterial blight in rice = test: whole plant or invertebrate; settings: Oryza sativa, read-out: efficacy against bacterial blight in rice
[13] = tested on: fruit blotch in watermelons; test: whole plant or invertebrate; settings: read-out: efficacy against fruit blotch in watermelons
[14] = tested on: soft rot in Chinese cabbages; test: whole plant or invertebrate; settings: 48 h, read-out: efficacy against soft rot in Chinese cabbages

Row | Compound | inhibition at 1 ppm [1] [%] | inhibition at 5 ppm [1] [%] | inhibition at 1 ppm [2] [%] | inhibition at 5 ppm [2] [%] | inhibition at 1 ppm [3] [%] | inhibition at 5 ppm [3] [%] | inhibition at 1 ppm [4] [%] | inhibition at 5 ppm [4] [%] | inhibition at 1 ppm [5] [%] | inhibition at 5 ppm [5] [%] | inhibition at 1 ppm [6] [%] | inhibition at 5 ppm [6] [%] | inhibition at 1 ppm [7] [%] | inhibition at 5 ppm [7] [%] | inhibition at 1 ppm [8] [%] | inhibition at 5 ppm [8] [%] | inhibition at 1 ppm [9] [%] | inhibition at 5 ppm [9] [%] | pest or weed control at 5 ppm (black shank in potatoes) [%] | pest or weed control at 10 ppm (black shank in potatoes) [%] | also measured
1 | CNc1cc2c(cc1F)c(=O)c(C(=O)OCCOC)cn2C1CC1 [Compound 401] | ≥ 90 | ≥ 90 | ≥ 90 | ≥ 90 | ≥ 90 | ≥ 90 | ≥ 90 | ≥ 90 | ≥ 90 | ≥ 90 | ≥ 90 | ≥ 90 | ≥ 90 | ≥ 90 | ≥ 90 | ≥ 90 | ≥ 90 | ≥ 90 | ≥ 90 | ≥ 90 | Rate of chlorophyll content increase (%) [10]: 13%; Rate of growth rate increase (%) [10]: 10%; Rate of leaf area increase (%) [10]: 10%; safety for plant growth (discoloration, necrosis, wilt, malformation) (cucumber seedlings): safe for plant growth; pest or weed control at 5 ppm [11]: ≥ 90%; pest or weed control at 10 ppm [11]: ≥ 90%; pest or weed control at 5 ppm [12]: ≥ 90%; pest or weed control at 10 ppm [12]: ≥ 90%; pest or weed control at 5 ppm (bacterial blight in rice): ≥ 90%; pest or weed control at 10 ppm (bacterial blight in rice): ≥ 90%; pest or weed control at 5 ppm [13]: ≥ 90%; pest or weed control at 10 ppm [13]: ≥ 90%; pest or weed control at 5 ppm [14]: ≥ 90%; pest or weed control at 10 ppm [14]: ≥ 90%
2 | CCNc1cc2c(cc1F)c(=O)c(C(=O)OCCO)cn2C1CC1 [Compound 407] | ≥ 90 | ≥ 90 | ≥ 90 | ≥ 90 | ≥ 90 | ≥ 90 | ≥ 90 | ≥ 90 | ≥ 90 | ≥ 90 | ≥ 90 | ≥ 90 | ≥ 90 | ≥ 90 | ≥ 90 | ≥ 90 | ≥ 90 | ≥ 90 | ≥ 90 | ≥ 90 | Rate of chlorophyll content increase (%) [10]: 15%; Rate of growth rate increase (%) [10]: 13%; Rate of leaf area increase (%) [10]: 11%; safety for plant growth (discoloration, necrosis, wilt, malformation) (cucumber seedlings): safe for plant growth; pest or weed control at 5 ppm [11]: ≥ 90%; pest or weed control at 10 ppm [11]: ≥ 90%; pest or weed control at 5 ppm [12]: ≥ 90%; pest or weed control at 10 ppm [12]: ≥ 90%; pest or weed control at 5 ppm (bacterial blight in rice): ≥ 90%; pest or weed control at 10 ppm (bacterial blight in rice): ≥ 90%; pest or weed control at 5 ppm [13]: ≥ 90%; pest or weed control at 10 ppm [13]: ≥ 90%; pest or weed control at 5 ppm [14]: ≥ 90%; pest or weed control at 10 ppm [14]: ≥ 90%
3 | CCNc1cc2c(cc1F)c(=O)c(C(=O)OCCOC)cn2C1CC1 [Compound 408] | ≥ 90 | ≥ 90 | ≥ 90 | ≥ 90 | ≥ 90 | ≥ 90 | ≥ 90 | ≥ 90 | ≥ 90 | ≥ 90 | ≥ 90 | ≥ 90 | ≥ 90 | ≥ 90 | ≥ 90 | ≥ 90 | ≥ 90 | ≥ 90 | ≥ 90 | ≥ 90 | Rate of chlorophyll content increase (%) [10]: 18%; Rate of growth rate increase (%) [10]: 12%; Rate of leaf area increase (%) [10]: 12%; safety for plant growth (discoloration, necrosis, wilt, malformation) (cucumber seedlings): safe for plant growth; pest or weed control at 5 ppm [11]: ≥ 90%; pest or weed control at 10 ppm [11]: ≥ 90%; pest or weed control at 5 ppm [12]: ≥ 90%; pest or weed control at 10 ppm [12]: ≥ 90%; pest or weed control at 5 ppm (bacterial blight in rice): ≥ 90%; pest or weed control at 10 ppm (bacterial blight in rice): ≥ 90%; pest or weed control at 5 ppm [13]: ≥ 90%; pest or weed control at 10 ppm [13]: ≥ 90%; pest or weed control at 5 ppm [14]: ≥ 90%; pest or weed control at 10 ppm [14]: ≥ 90%
4 | CN(C)c1cc2c(cc1F)c(=O)c(C(=O)OCCO)cn2C1CC1 [Compound 413] | ≥ 90 | ≥ 90 | ≥ 90 | ≥ 90 | ≥ 90 | ≥ 90 | ≥ 90 | ≥ 90 | ≥ 90 | ≥ 90 | ≥ 90 | ≥ 90 | ≥ 90 | ≥ 90 | ≥ 90 | ≥ 90 | ≥ 90 | ≥ 90 | ≥ 90 | ≥ 90 | Rate of chlorophyll content increase (%) [10]: 13%; Rate of growth rate increase (%) [10]: 15%; Rate of leaf area increase (%) [10]: 16%; safety for plant growth (discoloration, necrosis, wilt, malformation) (cucumber seedlings): safe for plant growth; pest or weed control at 5 ppm [11]: ≥ 90%; pest or weed control at 10 ppm [11]: ≥ 90%; pest or weed control at 5 ppm [12]: ≥ 90%; pest or weed control at 10 ppm [12]: ≥ 90%; pest or weed control at 5 ppm (bacterial blight in rice): ≥ 90%; pest or weed control at 10 ppm (bacterial blight in rice): ≥ 90%; pest or weed control at 5 ppm [13]: ≥ 90%; pest or weed control at 10 ppm [13]: ≥ 90%; pest or weed control at 5 ppm [14]: ≥ 90%; pest or weed control at 10 ppm [14]: ≥ 90%
5 | COCCOC(=O)c1cn(C2CC2)c2cc(N(C)C)c(F)cc2c1=O [Compound 414] | ≥ 90 | ≥ 90 | ≥ 90 | ≥ 90 | ≥ 90 | ≥ 90 | ≥ 90 | ≥ 90 | ≥ 90 | ≥ 90 | ≥ 90 | ≥ 90 | ≥ 90 | ≥ 90 | ≥ 90 | ≥ 90 | ≥ 90 | ≥ 90 | ≥ 90 | ≥ 90 | Rate of chlorophyll content increase (%) [10]: 15%; Rate of growth rate increase (%) [10]: 12%; Rate of leaf area increase (%) [10]: 18%; safety for plant growth (discoloration, necrosis, wilt, malformation) (cucumber seedlings): safe for plant growth; pest or weed control at 5 ppm [11]: ≥ 90%; pest or weed control at 10 ppm [11]: ≥ 90%; pest or weed control at 5 ppm [12]: ≥ 90%; pest or weed control at 10 ppm [12]: ≥ 90%; pest or weed control at 5 ppm (bacterial blight in rice): ≥ 90%; pest or weed control at 10 ppm (bacterial blight in rice): ≥ 90%; pest or weed control at 5 ppm [13]: ≥ 90%; pest or weed control at 10 ppm [13]: ≥ 90%; pest or weed control at 5 ppm [14]: ≥ 90%; pest or weed control at 10 ppm [14]: ≥ 90%
6 | CCN(CC)c1cc2c(cc1F)c(=O)c(C(=O)OCCO)cn2C1CC1 [Compound 419] | ≥ 90 | ≥ 90 | ≥ 90 | ≥ 90 | ≥ 90 | ≥ 90 | ≥ 90 | ≥ 90 | ≥ 90 | ≥ 90 | ≥ 90 | ≥ 90 | ≥ 90 | ≥ 90 | ≥ 90 | ≥ 90 | ≥ 90 | ≥ 90 | ≥ 90 | ≥ 90 | Rate of chlorophyll content increase (%) [10]: 15%; Rate of growth rate increase (%) [10]: 11%; Rate of leaf area increase (%) [10]: 17%; safety for plant growth (discoloration, necrosis, wilt, malformation) (cucumber seedlings): safe for plant growth; pest or weed control at 5 ppm [11]: ≥ 90%; pest or weed control at 10 ppm [11]: ≥ 90%; pest or weed control at 5 ppm [12]: ≥ 90%; pest or weed control at 10 ppm [12]: ≥ 90%; pest or weed control at 5 ppm (bacterial blight in rice): ≥ 90%; pest or weed control at 10 ppm (bacterial blight in rice): ≥ 90%; pest or weed control at 5 ppm [13]: ≥ 90%; pest or weed control at 10 ppm [13]: ≥ 90%; pest or weed control at 5 ppm [14]: ≥ 90%; pest or weed control at 10 ppm [14]: ≥ 90%
